Earlier results as cited in patent US7771758B2, “Extract of mad-dog skullcap” (Tom's of Maine, priority 2002, dated 2010).

What was measured:
[1] = test system: benzodiazepine site of the GABAA receptor; conditions: in vitro; flavones isolated from Scutellaria baicalensis

Compound	intestinal absorption (in vivo)	conjugation in the plasma (plasma)	ability to bind to the benzodiazepine site of the GABAA receptor [1]	transformation by intestinal bacteria (intestinal bacteria)
O=c1cc(-c2ccccc2)oc2cc(O)c(O)c(O)c12 [Baicalein, baicalein]	readily absorbed intestinally	efficiently conjugated back to baicalin	weak ligands	–
O=C(O)[C@H]1O[C@@H](Oc2cc3oc(-c4ccccc4)cc(=O)c3c(O)c2O)[C@H](O)[C@@H](O)[C@@H]1O [baicalin]	–	–	weak ligands	transformed to its aglycon baicalein
COc1c(O)cc2oc(-c3ccccc3)cc(=O)c2c1O [oroxylin A]	–	–	strong affinity	–
COc1c(O)cc(O)c2c(=O)cc(-c3ccccc3)oc12 [wogonin]	–	–	strong affinity	–
